Measured values: patent publication US8642657B2 (Gruenenthal GmbH, priority 2003, dated 2014)

| SMILES | melting point |
| --- | --- |
| CC(C(=O)NCCCc1ccc(Cl)cc1)c1ccc(NS(C)(=O)=O)c(F)c1 (stereo not drawn) [4-19, N-[3-(4-Chlorophenyl)propyl]-2-[3-fluoro-4-(methylsulfonylamino)phenyl]propionamide] | 141 to 143 °C |
| CC(C)(C)c1ccc(CNC(=O)C2(c3ccc(NS(C)(=O)=O)c(F)c3)CC2)cc1 [12-8, N-(4-tert-Butylbenzyl)-1-[3-fluoro-4-(methylsulfonylamino)phenyl]cyclopropanecarboxamide] | 200 to 203 °C |
| CC(C(=O)NCC=Cc1ccc(Cl)cc1)c1ccc(NS(C)(=O)=O)c(F)c1 (stereo not drawn) [4-20, N-[3-(4-Chlorophenyl)-2-propenyl]-2-[3-fluoro-4-(methylsulfonylamino)phenyl]propionamide] | 151 to 153 °C |
| Cc1ccc(CCCNC(=O)C2(c3ccc(NS(C)(=O)=O)c(F)c3)CC2)cc1C [12-5, N-[3-(3,4-Dimethylphenyl)propyl]-1-[3-fluoro-4-(methylsulfonylamino)phenyl]cyclopropanecarboxamide] | 127 to 128 °C |
| CC(C(=O)NC1CCCc2ccccc21)c1ccc(NS(C)(=O)=O)c(F)c1 (stereo not drawn) [4-13, N-(1,2,3,4-Tetrahydro-1-naphthalenyl)-2-[3-fluoro-4-(methylsulfonylamino)phenyl]propionamide] | 116 to 117 °C |
| Cc1ccc(CNC(=O)C(C)c2ccc(NS(C)(=O)=O)c(F)c2)cc1 (stereo not drawn) [4-7, N-(4-Methylbenzyl)-2-[3-fluoro-4-(methylsulfonylamino)phenyl]propionamide] | 166 °C |
| Cc1ccc(C=CCNC(=O)C(C)c2ccc(NS(C)(=O)=O)c(F)c2)cc1C (stereo not drawn) [4-18, N-[3-(3,4-Dimethylphenyl)-2-propenyl]-2-[3-fluoro-4-(methylsulfonylamino)phenyl]propionamide] | 144 to 146 °C |
| CC(C(=O)NCc1ccc(C(C)(C)C)cc1)c1ccc(NS(C)(=O)=O)c(N2CCN(C(=O)OC(C)(C)C)CC2)c1 (stereo not drawn) [1-63, N-(4-tert-Butylbenzyl)-2-[3-(N-boc)piperazino-4-(methylsulfonylamino)phenyl]propionamide] | 103 °C |

Results, then the compound that gave them:

| melting point | SMILES |
| --- | --- |
| 154 to 156 °C | CC(NC(=O)C=Cc1ccc(C(C)(C)C)cc1)c1ccc(NS(C)(=O)=O)c(F)c1 (stereo not drawn) [24-3, N-{1-[3-Fluoro-4-(methylsulfonylamino)phenyl]ethyl}-3-(4-tert-butylphenyl)-2-propenamide] |
| 78 °C | CC(C(=O)NCc1ccc(C(C)(C)C)cc1)c1ccc(NS(C)(=O)=O)c(N2CCOCC2)c1 (stereo not drawn) [1-62, N-(4-tert-Butylbenzyl)-2-[3-morpholino-4-(methylsulfonylamino)phenyl]propionamide] |
| 125 °C | CC(C(=O)NCc1ccc(C(C)(C)C)cc1)c1ccc(NS(C)(=O)=O)c(N2CCCCC2)c1 (stereo not drawn) [1-61, N-(4-tert-Butylbenzyl)-2-[3-piperidino-4-(methylsulfonylamino)phenyl]propionamide] |
| 61 to 64 °C | CC(NC(=S)NC(COC(=O)C(C)(C)C)Cc1ccccc1)c1ccc(NS(C)(=O)=O)cc1 [19-15, N-[(2R)-3-phenyl-1-pivaloyloxy-2-propyl]-N′-[(S)-α-methyl-4-(methylsulfonylamino)benzy]thiourea] |
| 155 to 157 °C | CC(C(=O)NCC=C(c1ccccc1)c1ccccc1)c1ccc(NS(C)(=O)=O)c(F)c1 (stereo not drawn) [4-25, N-(3,3-Diphenyl-2-propenyl)-2-[3-fluoro-4-(methylsulfonylamino)phenyl]propionamide] |
| 180 to 183 °C | CC(C(=O)NCc1ccc(C(C)(C)C)cc1)c1ccc(NS(C)(=O)=O)c(C(=O)O)c1 (stereo not drawn) [1-58, N-(4-tert-Butylbenzyl)-2-[3-carboxyl-4-(methylsulfonylamino)phenyl]propionamide] |
| 92 °C | CC(C(=O)NCc1ccc(C(C)(C)C)cc1)c1ccc(NS(C)(=O)=O)c(N2CCNCC2)c1 (stereo not drawn) [1-64, N-(4-tert-Butylbenzyl)-2-[3-piperazino-4-(methylsulfonylamino)phenyl]propionamide] |
